# Laboratory results as given in ChEMBL document CHEMBL5303304, “EUbOPEN Chemogenomics Library - IncuCyte” (2023).
# Values joined by “and” are separate entries in the source; they are usually repeats but may differ in a detail not shown here. Identical values can stand only once.
# How the values were obtained:
# Type in all cases: toxicity, cell-based
# [1] = tested on: HEK-293T; assay: Incucyte cell viability with HEK293T; conditions: human, 10 µM, compound concentration 10 uM
# [2] = tested on: U2OS; assay: Incucyte cell viability with U2OS; conditions: human, 10 µM, compound concentration 10 uM
# [3] = tested on: Fibroblast; assay: Incucyte cell viability with human fibroblast; conditions: 10 µM, compound concentration 10 uM
# Note: unitless GR value; below 1 slowed growth and below 0 cell loss.
Structure (SMILES),"Growth Rate ([1]; 6 h, replicate number 2)","Growth Rate ([1]; 12 h, replicate number 2)","Growth Rate ([1]; 18 h, replicate number 1)","Growth Rate ([1]; 18 h, replicate number 2)","Growth Rate ([1]; 24 h, replicate number 2)","Growth Rate ([2]; 0 h, replicate number 1)","Growth Rate ([2]; 0 h, replicate number 2)","Growth Rate ([2]; 6 h, replicate number 2)","Growth Rate ([2]; 24 h, replicate number 1)","Growth Rate ([3]; 6 h, replicate number 1)","Growth Rate ([3]; 12 h, replicate number 1)","Growth Rate ([3]; 18 h, replicate number 2)","Growth Rate ([1]; 0 h, replicate number 1)","Growth Rate ([2]; 12 h, replicate number 2)","Growth Rate ([2]; 18 h, replicate number 2)","Growth Rate ([2]; 24 h, replicate number 2)","Growth Rate ([3]; 0 h, replicate number 2)","Growth Rate ([3]; 6 h, replicate number 2)","Growth Rate ([3]; 18 h, replicate number 1)","Growth Rate ([1]; 0 h, replicate number 2)",other results
COc1ccc(-c2csc(NC(=O)[C@H]3CCCCN3S(=O)(=O)c3ccc(C)cc3)n2)cc1,0.07 and 0.12,0.37,0.35 and 0.26,0.3 and 0.38,0.41 and 0.4,0.22,-0.9,0.97,0.87 and 0.98,0.02,0.31,0.57,–,–,–,–,–,–,–,–,"Growth Rate ([1]; 24 h, replicate number 1): 0.37 and 0.33; Growth Rate ([2]; 6 h, replicate number 1): 0.92; Growth Rate ([2]; 12 h, replicate number 1): 0.99; Growth Rate ([3]; 0 h, replicate number 1): -1 and -0.88; Growth Rate ([3]; 24 h, replicate number 1): 0.84; Growth Rate ([3]; 24 h, replicate number 2): 0.7"
C[C@@H]1CC[C@@]2(OC1)O[C@H]1[C@@H](O)[C@H]3[C@@H]4CC[C@H]5C[C@@H](O[C@@H]6O[C@H](CO)[C@H](O[C@@H]7O[C@H](CO)C(O)[C@H](O[C@@H]8OC[C@@H](O)[C@H](O)[C@H]8O)[C@H]7O[C@@H]7O[C@H](CO)[C@H](O)[C@H](O[C@@H]8O[C@H](CO)[C@@H](O)[C@H](O)[C@H]8O)[C@H]7O)[C@H](O)[C@H]6O)[C@H](O)C[C@]5(C)[C@H]4CC[C@]3(C)[C@H]1[C@@H]2C (some centres undefined) [DIGITONIN],0.94,0.65,–,0.68,0.72,0.49,0.74,0.68,1,–,–,0.73,-0.37,0.67,0.6,0.6,0.94,0.68,0.93,–,"Growth Rate ([2]; 12 h, replicate number 1): 0.85; Growth Rate ([2]; 18 h, replicate number 1): 0.96; Growth Rate ([3]; 0 h, replicate number 1): 0.3; Growth Rate ([3]; 12 h, replicate number 2): 0.67; Growth Rate ([3]; 24 h, replicate number 1): 0.88; Growth Rate ([3]; 24 h, replicate number 2): 0.85"
CCCCc1c(-c2ccccc2)nc(N)nc1-c1ccc(OCc2ccccc2)c(F)c1F,–,0.89,–,–,0.99,–,-0.86,0.27,1,–,–,–,-0.23,0.36,0.55,0.77,0.8,–,–,-0.46,"Growth Rate ([2]; 6 h, replicate number 1): 0.5"
OC(CN1CCC(Cc2ccc(F)cc2)CC1)c1ccc(Cl)cc1 (centres undefined) [ELIPRODIL],–,–,0.88,–,–,–,-0.72,–,–,-0.61,-0.13,–,–,0.95,–,–,-0.95,0.5,–,0.62,"Growth Rate ([1]; 12 h, replicate number 1): 0.57"
CC(C)(C)OC(=O)CN(Cc1ccc(Cl)cc1)Cc1ccc([N+](=O)[O-])s1 [GSK-4112],0.58,0.91,0.76,0.75,0.92,–,–,–,0.95,0.7,0.71,0.06,0.04,–,–,–,–,-0.08,0.74,0.51,"Growth Rate ([1]; 6 h, replicate number 1): 0.86; Growth Rate ([1]; 12 h, replicate number 1): 0.78; Growth Rate ([2]; 12 h, replicate number 1): 0.82; Growth Rate ([2]; 18 h, replicate number 1): 0.94; Growth Rate ([3]; 12 h, replicate number 2): 0.06; Growth Rate ([3]; 24 h, replicate number 1): 0.72; Growth Rate ([3]; 24 h, replicate number 2): 0.19"
O=C1NC(NC23CC4CC(CC(C4)C2)C3)=N/C1=C\c1ccc2ncsc2c1,–,0.34,0.06,0.09,0.05,0.86,-0.34,–,0.82,-1,–,–,-0.45,–,0.87,0.52,0.76,–,–,-0.26,"Growth Rate ([1]; 12 h, replicate number 1): 0.28; Growth Rate ([1]; 24 h, replicate number 1): 0.08; Growth Rate ([3]; 0 h, replicate number 1): 0.57"
CN[C@@H](C)C(=O)N[C@H](C(=O)N1CCC[C@H]1C(=O)Nc1snnc1-c1ccccc1)C1CCCCC1 [GDC-0152],-0.14,0.05,-0.27,0.07,0.07,0.23,–,–,–,-0.88,–,–,0.81,0.89,0.98,0.98,-0.71,–,0.81,–,"Growth Rate ([1]; 6 h, replicate number 1): 0.13; Growth Rate ([1]; 12 h, replicate number 1): -0.36; Growth Rate ([1]; 24 h, replicate number 1): -0.26; Growth Rate ([3]; 0 h, replicate number 1): -0.28"
CCOC(=O)c1ccc(N2C(=O)C(O)=C(C(=O)c3ccc(OC)cc3)C2c2ccc(F)cc2)cc1 (centres undefined),–,–,–,0.83,0.85,0.54,0.5,0.87,–,0.14,-1,–,–,0.89,1,0.74,-0.75,–,-0.29,0.85,"Growth Rate ([1]; 6 h, replicate number 1): 0.75; Growth Rate ([2]; 18 h, replicate number 1): 0.96"
CCOP(=O)(OCC)C(=Cc1cc(C(C)(C)C)c(O)c(C(C)(C)C)c1)P(=O)(OCC)OCC,0.25,0.55,0.94,0.79,0.95,–,0.17,0.36,–,0.57,0.78,0.7,0.16,0.63,0.75,0.77,0.24,0.08,0.39,-0.99,"Growth Rate ([3]; 24 h, replicate number 1): 0.61"
CN(C)c1ccc(-c2cc3ncccc3c(OCCCCO)n2)cc1.O=C(O)C(F)(F)F,–,–,–,–,0.87,-1,–,-0.83,0.91,–,–,0.6,-0.94,0.55,0.67,0.64,-0.45,0.29,–,-0.26,"Growth Rate ([2]; 12 h, replicate number 1): 0.85; Growth Rate ([2]; 18 h, replicate number 1): 0.66; Growth Rate ([3]; 12 h, replicate number 2): 0.37; Growth Rate ([3]; 24 h, replicate number 2): 0.65"
